Data reported in patent US10328075B2, “Method of treatment and compounds for use therein” (Baker Heart and Diabetes Institute, priority 2015, dated 2019).
No end group written: not given here.

Columns and labels:
[1] = system: neonatal rat ventricular cardiomyocyte; test: Hypoxia-reoxygenation (simulated I-R) injury in neonatal rat cardiomyocytes, LDH and cTnI release; type: cell-based; settings: 1 μM
Method: Isolation of primary neonatal rat ventricular cardiomyocyte: All materials used for cardiomyocyte isolation were of tissue culture grade. Cardiomyocyte isolation was performed by serial enzymatic digestions, as previously described (Irvine, J C et al, AJP, 2013). Cardiomyocyte were suspended in sterile DMEM, supplemented with 100 U/mL penicillin, 100 μg/mL streptomycin, and 10% FCS. The myocyte-rich cell suspension was preplated twice (45 min at 37° C.) to reduce fibroblast contamination. Cardiomycte was then plated onto 12-well plates at 0.5×10^6 for lactate dehydrogenase (LDH) assay in the presence of 1% 5-bromo-2′-deoxyuridine (BrdU, to limit proliferation of any remaining fibroblasts).
Simulated ischaemic-reperfusion in neonatal rat cardiomyocytes: The medium for cardiomyocytes was changed to serum-free low glucose DMEM after at least 48 h after isolation. […] Agonists were dissolved in DMEM or Krebs' buffer and were present for the full duration of hypoxia and reoxygenation. At the end of 48 h reoxygenation, culture supernatant aliquots was collected on ice and stored at −80° C. for assessment of cardiomyocyte injury. Samples were thawed on ice, and cell injury assessment determined via the level of LDH released into the supernatant, using the Cyto-Tox-One™ Homogeneous Membrane Integrity Assay as per manufacture's instruction (Promega Inc, Dane Country, Wis., USA). To confirm the extent of cardiomyocyte injury, levels of cTn in the supernatant were also evaluated, using a commercially available high-sensitivity rat cTnI ELISA kit (Life Diagnostic Inc, West Chester, Pa., USA) as per manufacturer's instructions.
Isolation and culture of primary rat cardiomyocytes and mouse cardiac fibroblasts: All materials used for cell isolation were of tissue culture grade. Isolation of primary neonatal rat cardiac cardiomyocytes (NRCM) and adult mouse cardiac fibroblasts (AMCF) was performed by serial enzymatic digestion, as previously described (Irvine et al 2012 & Irvine et al. 3) NRCM were plated onto either 12-well tissue culture plates (for simulated ischemia-reperfusion, via hypoxia-reoxygenation, H-R) or 60 mm tissue culture dishes (for gene expression) at a density of 1.3×10^5 cells/cm^2, in the presence of 1% 5-bromo-2′-deoxyuridine. AMCF (passage #3) were seeded onto 60 mm tissue culture dishes at 9.5×10^4 cells/cm^2 and allowed to grow to 80% confluence prior to study. Following 48 h in serum-free DMEM, NRCM in 12-well tissue plates were subjected to simulated ischemia, induced by replacement of culture media with sterile-filtered Kreb's buffer (118 mM NaCl, 4.8 mM KCl, 1.2 mM KH2PO4, 1.2 mM MgSO4, 25 mM NaHCO3, […], 11.0 mM glucose, 1.75 mM CaCl2) prior to incubation for 6 h at 37° C. under hypoxia (95% N2-5% CO2, using a hypoxia chamber, QNA International, Melbourne, Australia). At the end of hypoxia, Kreb's buffer was replaced with fresh, sterile-filtered Kreb's buffer, in the presence or absence of FPR agonists Cmpd17b, Cmpd43 (both 1 μM or vehicle, and NRCM were subjected to 48 h reoxygenation at 37° C. At the end of 48 h reoxygenation, NRCM supernatant was collected for assessment of cardiomyocyte injury. Cardiomyocyte release of cTnI was determined using a commercially available, high-sensitivity rat cTnI ELISA kit (Life Diagnostic Inc.) as per the manufacturer's instructions. Separate NRVM on 60 mm dishes were incubated for 48 h at 37° C. in serum-free DMEM, in the presence or absence of FPR agonists Cmpd17b, Cmpd43 (both 1 μM) or vehicle. At the end of 48 h, RNA was extracted and real-time PCR performed (as described previously (Huynh et al. 2012)), to determine the relative gene expression of rat Fprs (rFpr1, rFpr2 and rFpr3, expressed as the threshold cycle number Ct subtracted from the maximum cycle number utilized, 40).
Cardiomyocytes injury responses in vitro: Neonatal rat cardiomyocytes and adult mouse cardiofibroblasts were isolated and cultured as described (online Supplement). […]

[2] = Plasma levels and pharmacokinetics in mice; type: in vivo, mouse; settings: for Tmax / half-life: mouse, in vivo, Table 9, mice
[3] = present only during reoxygenation
[4] = present for the full duration of 6 h hypoxia and 48 h reoxygenation

| Compound | Cardiomyocyte cTnI release after hypoxia-reoxygenation [1, 3] | Plasma level approximately 20 h after the final dose (in words) ([2]; mice subjected to 7 days reperfusion, 50 mg/kg/day i.p.) | Tmax [2] | half-life [2] | Cardiomyocyte cTnI release after hypoxia-reoxygenation ([1]; present only during reoxygenation, listed as Cmpd17b) | Cardiomyocyte LDH release after hypoxia-reoxygenation [1, 4] | Cardiomyocyte cTnI release after hypoxia-reoxygenation [1, 4] | Cardiomyocyte LDH release after hypoxia-reoxygenation [1, 3] |
| --- | --- | --- | --- | --- | --- | --- | --- | --- |
| CC(C)C1C(NC(=O)Nc2ccc(Cl)cc2)C(=O)N(c2ccccc2)N1C (centres unmarked) [BIDI-002] | significantly reduced | micromolar range | 2 h | 3.8 h | – | – | – | – |
| COc1cccc(Cc2cc(C)nn(C(C)C(=O)Nc3ccc(Br)cc3)c2=O)c1 (centres unmarked) [BIDI-001, N-(4-bromophenyl)-2-[5-(3-methoxybenzyl)-3-methyl-6-oxo-6H-pyridazin-1-yl]-propionamide] | significantly reduced | – | 0.5 h | 7.6 h | rescued | – | – | – |
| Cc1cc(Cc2cccnc2)c(=O)n(CC(=O)Nc2ccc(Cl)cc2)n1 [MIPS-0010396] | – | – | 1 h | 11.7 h | – | – | – | – |
| Ac2-26: Annexin-A1 N-terminal peptide, peptide ANX-A1 mimetic (Ac-AMVSEFLKQAWFIENEEQEYVQTVK; UniProt P04083 2-26, looked up, fragment) | significantly attenuated | – | – | – | – | significantly reduced | significantly reduced | non-significant trend |
